Test results published in US4603125A, “Substituted o-phenylenediamine acridine compounds having antitumor activity” (Development Finance Corporation of New Zealand, priority 1982, dated 1986).
“Also recorded” adds a separate entry of the source.

Columns and labels:
L1210 leukemia = details: earlier work, cited from earlier work
[1] = Rm from reversed phase partition chromatography (lipophilic-hydrophilic balance)
Source text: (§1) Rm=a measure of the compound's lipophilic-hydrophilic balance from reversed phase partition chromatography. Rm is linearly related to partition coefficients obtained in the 1-octanol/water system.

Lewis lung carcinoma = Lewis lung carcinoma in vivo (increase in lifespan); details: for ILS (percentage increase in lifespan), Lewis lung: i.v. tumour, days 1, 5 and 9, >40% statistically significant
Source text: LL. is the Lewis lung carcinoma.

tumour = test: antitumour activity in in vivo test systems (summary); details: compared to unsubstituted AMSA and m-AMSA (for compound 1)
Source text: The compounds of general formula (I) and particularly the examples listed in Tables I and II, have antitumor activity in in vivo test systems, as shown by the data of Tables III and IV.

P388 Leukemia = test: P388 leukemia in vivo (increase in lifespan); details: at OD; i.p. tumour, days 1, 5 and 9; >20% statistically significant
physchem = details: reversed phase partition chromatography
Source text: as §1

| Compound | chromatographic logP [1] | ILSmax (percentage increase in lifespan), P388 (P388 Leukemia) | other results |
| --- | --- | --- | --- |
| CS(=O)(=O)Nc1ccc(Nc2c3ccccc3nc3ccccc23)cc1 [AMSA, 4'-(9-acridinylamino) methanesulphonanilide] |  |  | antitumour activity on L1210 leukemia (L1210 leukemia): good antitumour activity |
| CNc1cc(NS(C)(=O)=O)ccc1Nc1c2ccccc2nc2ccccc12 [Compound 1] | 0.17 |  | ILS (percentage increase in lifespan), Lewis lung (Lewis lung carcinoma; at OD): 85%; potency and antitumour activity (tumour): increased potency and antitumour activity |
| CNc1cc(NS(C)(=O)=O)ccc1Nc1c2ccccc2nc2cc(C)ccc12 [Compound 3] | 0.39 | 83% |  |
| CNc1cc(NS(C)(=O)=O)ccc1Nc1c2ccccc2nc2cc(OC)ccc12 [Compound 4] | 0.21 | 140% |  |
| CNc1cc(NS(C)(=O)=O)ccc1Nc1c2ccccc2nc2cc(F)ccc12 [Compound 5] | 0.28 |  |  |
| CNc1cc(NS(C)(=O)=O)ccc1Nc1c2ccccc2nc2cc(Cl)ccc12 [Compound 6] | 0.36 |  |  |
| CNc1cc(NS(C)(=O)=O)ccc1Nc1c2ccccc2nc2cc(Br)ccc12 [Compound 7] | 0.34 | 94% |  |
| CNc1cc(NS(C)(=O)=O)ccc1Nc1c2ccccc2nc2cc(I)ccc12 [Compound 8] | 0.35 | 80% |  |
| CNc1cc(NS(C)(=O)=O)ccc1Nc1c2ccccc2nc2cc([N+](=O)[O-])ccc12 [Compound 9] | 0.04 | 70% |  |
| CNc1ccc2c(Nc3ccc(NS(C)(=O)=O)cc3NC)c3ccccc3nc2c1 [Compound 10] | 0.18 |  |  |
| CNc1cc(NS(C)(=O)=O)ccc1Nc1c2ccccc2nc2cc(NC(=O)OC)ccc12 [Compound 11] | 0.13 |  |  |
| CNc1cc(NS(C)(=O)=O)ccc1Nc1c2ccccc2nc2c(C)cccc12 [Compound 12] | 0.19 |  |  |
| CNc1cc(NS(C)(=O)=O)ccc1Nc1c2ccccc2nc2c(OC)cccc12 [Compound 13] | 0.12 |  |  |
| CNC(=O)c1cccc2c(Nc3ccc(NS(C)(=O)=O)cc3NC)c3ccccc3nc12 [Compound 15] | 0.07 | 82% |  |
| CNc1cc(NS(C)(=O)=O)ccc1Nc1c2ccc(C)cc2nc2c(C)cccc12 [Compound 16] | 0.38 | 92% |  |
| CNc1cc(NS(C)(=O)=O)ccc1Nc1c2ccc(OC)cc2nc2c(C)cccc12 [Compound 17] | 0.31 |  |  |
| CNc1cc(NS(C)(=O)=O)ccc1Nc1c2ccc(F)cc2nc2c(C)cccc12 [Compound 18] | 0.31 |  |  |
| CNc1cc(NS(C)(=O)=O)ccc1Nc1c2ccc(Cl)cc2nc2c(C)cccc12 [Compound 19] | 0.4 |  |  |
| CNc1cc(NS(C)(=O)=O)ccc1Nc1c2ccc(Br)cc2nc2c(C)cccc12 [Compound 21] | 0.38 |  |  |
| CNc1cc(NS(C)(=O)=O)ccc1Nc1c2ccc(C)cc2nc2c(OC)cccc12 [Compound 22] | 0.33 |  |  |
| CNC(=O)c1cccc2c(Nc3ccc(NS(C)(=O)=O)cc3NC)c3ccc(Cl)cc3nc12 [Compound 23] | 0.23 | 59% |  |
| CNC(=O)c1cccc2c(Nc3ccc(NS(C)(=O)=O)cc3NC)c3cccc(C)c3nc12 [Compound 24] | 0.23 | 94% |  |
| CNc1cc(NS(C)(=O)=O)ccc1Nc1c2cccc(C)c2nc2c(C)cccc12 [Compound 25] | 0.16 |  |  |
| CNc1cc(NS(C)(=O)=O)ccc1Nc1c2cccc(OC)c2nc2c(OC)cccc12 [Compound 26] |  | 84% |  |
| CS(=O)(=O)Nc1ccc(Nc2c3ccccc3nc3ccccc23)c(NCCO)c1 [Compound 27] | 0.07 | 89% |  |
| CS(=O)(=O)Nc1ccc(Nc2c3ccccc3nc3cc(Br)ccc23)c(NCCO)c1 [Compound 28] | 0.11 |  |  |
| Cc1cccc2c(Nc3ccc(NS(C)(=O)=O)cc3NCCO)c3ccccc3nc12 [Compound 29] | 0.02 |  |  |
| CS(=O)(=O)Nc1ccc(Nc2c3ccccc3nc3ccccc23)c(NCC(O)CO)c1 (stereo not drawn) [Compound 30] | 0.3 | 84% |  |

| Compound | chromatographic logP [1] | ILSmax (percentage increase in lifespan), P388 (P388 Leukemia) | other results |
| --- | --- | --- | --- |
| Cc1cccc2c(Nc3ccc(NS(C)(=O)=O)cc3NCC(O)CO)c3ccccc3nc12 (stereo not drawn) [Compound 31] | 0.21 | 83% |  |
| CN(C)c1cc(NS(C)(=O)=O)ccc1Nc1c2ccccc2nc2ccccc12 [Compound 32] | 0.41 | 212% | cures, Lewis lung (Lewis lung carcinoma; at OD): all cured; ILS (percentage increase in lifespan), Lewis lung (Lewis lung carcinoma; at OD): > 250% |
| Cc1cccc2c(Nc3ccc(NS(C)(=O)=O)cc3N(C)C)c3ccccc3nc12 [Compound 34] |  |  | chromatographic logP (physchem): 0.36 |
| COc1ccc2c(Nc3ccc(NS(C)(=O)=O)cc3N(C)C)c3cccc(C)c3nc2c1 [Compound 41] |  |  | chromatographic logP (physchem): 0.44 |
| CNC(=O)c1cccc2c(Nc3ccc(NS(C)(=O)=O)cc3N(C)C)c3cccc(C)c3nc12 [Compound 44] |  |  | chromatographic logP (physchem): 0.4 |
| CN(CCO)c1cc(NS(C)(=O)=O)ccc1Nc1c2ccccc2nc2ccccc12 [Compound 45] | 0.1 | 100% |  |
| CNc1cc(NP(=O)(OC)OC)ccc1Nc1c2ccccc2nc2ccccc12 [Compound 47] | 0.32 | 118% |  |
| CNc1cc(NP(=O)(OC)OC)ccc1Nc1c2ccccc2nc2cc(Br)ccc12 [Compound 48] | 0.62 | 77% |  |
| CNc1cc(NP(=O)(OC)OC)ccc1Nc1c2ccccc2nc2c(C)cccc12 [Compound 49] | 0.47 | 91% |  |
| CNc1cc(NC(=O)OC)ccc1Nc1c2ccccc2nc2ccccc12 [Compound 50] | 0.51 |  |  |
| COC(=O)Nc1ccc(Nc2c3ccccc3nc3ccccc23)c(NCCO)c1 [Compound 51] | 0.39 |  |  |
| CNc1cc(NC(=O)OC)ccc1Nc1c2ccccc2nc2cc(C)ccc12 [Compound 52] | 0.78 | 86% |  |
| CNc1cc(NC(=O)OC)ccc1Nc1c2ccccc2nc2cc(F)ccc12 [Compound 53] | 0.63 | 110% |  |
| CNc1cc(NC(=O)OC)ccc1Nc1c2ccccc2nc2cc(Cl)ccc12 [Compound 54] | 0.73 |  |  |
| CNc1cc(NC(=O)OC)ccc1Nc1c2ccccc2nc2cc(Br)ccc12 [Compound 55] | 0.7 |  |  |
| CNc1cc(NC(=O)OC)ccc1Nc1c2ccc(Cl)cc2nc2c(C)cccc12 [Compound 56] | 0.67 |  | ILS (percentage increase in lifespan), Lewis lung (Lewis lung carcinoma; at OD): 100% |
| CNc1cc(NC(=O)OC)ccc1Nc1c2ccc(Br)cc2nc2c(C)cccc12 [Compound 57] | 0.69 | 97% | ILS (percentage increase in lifespan), Lewis lung (Lewis lung carcinoma; at OD): 82% |
| CNc1cc(NC(=O)OC)ccc1Nc1c2ccccc2nc2c(C)cccc12 [Compound 58] | 0.56 |  | ILS (percentage increase in lifespan), Lewis lung (Lewis lung carcinoma; at OD): 48% |
| COC(=O)Nc1ccc(Nc2c3ccccc3nc3ccccc23)c(N(C)C)c1 [Compound 59] | 0.56 | 51% |  |
| CNc1cc(NS(=O)(=O)c2ccccc2)ccc1Nc1c2ccccc2nc2ccccc12 [Compound 60] | 0.55 |  |  |
| O=S(=O)(Nc1ccc(Nc2c3ccccc3nc3ccccc23)c(NCCO)c1)c1ccccc1 [Compound 61] | 0.35 | 81% |  |
| CNc1cc(NS(=O)(=O)c2ccc(N)cc2)ccc1Nc1c2ccccc2nc2ccccc12 [Compound 62] | 0.03 |  |  |
| CNc1cc(NS(=O)(=O)c2ccc(N)cc2)ccc1Nc1c2ccccc2nc2cc(Br)ccc12 [Compound 63] | 0.29 |  |  |
| CNc1cc(NS(=O)(=O)c2ccc(N)cc2)ccc1Nc1c2ccccc2nc2c(C)cccc12 [Compound 64] | 0.13 |  |  |
| Nc1ccc(S(=O)(=O)Nc2ccc(Nc3c4ccccc4nc4ccccc34)c(NCCO)c2)cc1 [Compound 65] | 0.18 | 50% |  |
| CNc1cc(NC(=O)Oc2ccccc2)ccc1Nc1c2ccccc2nc2ccccc12 [Compound 66] | 0.76 | 71% |  |
| COc1cc(NS(C)(=O)=O)ccc1Nc1c2ccccc2nc2ccccc12 [m-AMSA, 4'-(9-acridinylamino)methanesulphon-m-anisidide, reference compound] |  | 78% | ILS (percentage increase in lifespan), Lewis lung (Lewis lung carcinoma; at OD): 38%; active, Lewis lung (Lewis lung carcinoma; at the stated dose (OD)): Y/N; Lewis lung activity in words (Lewis lung carcinoma; tumour implanted intravenously): minimal activity; also recorded: strictly inactive; dose potency of 3'-methoxy derivative (L1210 leukemia; vs AMSA): increased dose potency |
